Measured values reported in US12590093B2, “Indolo[2′,3′:3,4]pyrido[2,1-b]quinazoline compound and use thereof” (INSTITUTE OF MEDICINAL BIOTECHNOLOGY CHINESE ACADEMY OF …, priority 2019, dated 2026).

Columns and labels:
ABCA1 = ABCA1 up-regulation, luciferase reporter in ABCA1P-LUC HepG2 cells; type: cell-based; conditions: Homo sapiens, 18 h, maximum up-regulation fold of luciferase activity versus DMSO, read-out: ABCA1 max
Method: (§1) Experiments were conducted to detect whether the compounds of the disclosure can pharmacologically up-regulate the expression of ABCA1 and SR-BI. Firstly, ABCA1P-LUC HepG2 cells or SR-BI-LUC HepG2 cells in logarithmic growth phase were digested, diluted in cell culture medium, and counted. Cells were seeded into 96-well plates at a density of 5×10^5/ml (100 μL of the single-cell suspension per well). After cells fully adhered (about 6 h), the medium containing 10% FBS was removed, and the cells were gently washed with PBS. Serum free MEM-EBSS medium (200 μL per test well) and 2 μL of the compounds to be tested (at a final concentration of 10 μg/mL) were added to each test well, and meanwhile, DMSO at a corresponding concentration was added to the control well. After 18-24 h, the medium was removed. Cell Luciferase activity was measured by a method as described in the Luciferase Assay System. By optimizing the final concentration of DMSO, the treatment time of the compounds on the cells and the number of cells seeded into each well during the screening, the final screening conditions were determined as follows: each well is seeded with 5×10^4 cells, DMSO is added at a final concentration of 1%, and the sample is treated for 18 h.
(§2) The ratio of change of luciferase activity is calculated with the following formula: Ratio of change (%)=A/B×100;
(§3) wherein A is the luciferase activity (RLU) measured after the compound to be tested is added, and B is the luciferase activity (RLU) measured after the blank control (DMSO) is added. The luciferase activity of cells in each well was measured, and the dose-effect relationship between the concentration of the compound and the ratio of change of the luciferase activity was determined to calculate the EC50.

SR-BI = SR-BI up-regulation, luciferase reporter in SR-BI-LUC HepG2 cells; type: cell-based; conditions: Homo sapiens, 18 h, maximum up-regulation of luciferase activity versus DMSO, read-out: SR-BI max
Method: as §1, §2, §3

LXRα = target: T1, LXRα (Homo sapiens, UniProt Q13133); test: Nuclear receptor reporter gene transient transfection (pBIND-hLXRs-LBD) in HepG2 cells, LXRα; type: cell-based; conditions: for LXRα max: HepG2 cells, reporter gene, 18-24 h; for LXRα agonist activity: result in words
T1 construct: expressed in transfected cells; host or cells: HepG2
T1 sequence (Q13133 209-447 limits assumed): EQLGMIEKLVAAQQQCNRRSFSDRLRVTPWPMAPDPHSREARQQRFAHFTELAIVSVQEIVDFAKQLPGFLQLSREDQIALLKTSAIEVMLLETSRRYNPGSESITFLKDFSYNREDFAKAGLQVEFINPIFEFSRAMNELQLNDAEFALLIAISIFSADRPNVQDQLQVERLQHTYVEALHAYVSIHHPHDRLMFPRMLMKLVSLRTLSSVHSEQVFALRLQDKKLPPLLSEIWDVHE
Method: (§4) HepG2 cells in logarithmic growth phase were digested, seeded into the white/clear 96-well plate at a density of 5×10^4 cells/well/100 μL until the cells grew to about 90% confluence and in good condition. 0.5 μL liposome (Lipofectamine® 2000) diluted with blank medium to 25 μL per well and incubated at room temperature for 5 min. The corresponding plasmids DNA (nuclear receptor plasmid:Gal4=1:10) were diluted in blank DMEM medium to 25 μL/well (mixing of two plasmids), then mixed evenly with the diluted liposome, and incubated for 20 min at 37° C. The DNA-liposome complex (50 μL per well) was added with the DMEM complete medium (100 μL per well) and mixed thoroughly to obtain a DNA-liposome complex cell culture. The cell medium was discarded, and replaced with the DNA-liposome complex cell culture (150 μL/well) (37° C., 5% CO2). After 6 h, the DNA-liposome complex cell culture medium was discarded, and 200 μL serum-free DMEM medium containing the compound at an appropriate concentration was added to each test well, and cultured for 18-24 h. The cell Luciferase activity was measured by the method as described in the Luciferase Assay System.

LXRβ = target: T2, LXRβ (Homo sapiens, UniProt P55055); test: Nuclear receptor reporter gene transient transfection (pBIND-hLXRs-LBD) in HepG2 cells, LXRβ; type: cell-based; conditions: for LXRβ max: HepG2 cells, reporter gene, 18-24 h; for LXRβ agonist activity: result in words
T2 construct: expressed in transfected cells; host or cells: HepG2
T2 sequence (P55055 222-460 limits assumed): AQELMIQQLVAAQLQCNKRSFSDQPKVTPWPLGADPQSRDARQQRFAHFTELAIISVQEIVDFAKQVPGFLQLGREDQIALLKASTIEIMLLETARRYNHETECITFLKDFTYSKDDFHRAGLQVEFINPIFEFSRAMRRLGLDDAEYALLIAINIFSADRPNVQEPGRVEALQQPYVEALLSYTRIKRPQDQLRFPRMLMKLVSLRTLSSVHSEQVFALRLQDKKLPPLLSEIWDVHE
Method: as §4

[1] = background statement; cited from earlier work

Compound: O=c1c2ccccc2nc2c3[nH]c4ccccc4c3ccn12 [TR4, indolo[2′,3′:3,4]pyrido[2,1-b]quinazolin-5(13H)-one]
- maximal fold induction (ABCA1): 1.84
- maximal fold induction (SR-BI): 1.74
- LXRα max (LXRα): 1.84
- LXRα agonist activity (LXRα): showed agonist activity
- LXRβ max (LXRβ): 1.88
- LXRβ agonist activity (LXRβ): showed agonist activity

Compound: O=C1c2ccccc2OC2c3[nH]c4ccccc4c3CCN12 (stereo not shown) [TY4, 7,8,13,13b-tetrahydro-5H-benzo[5′,6′][1,3]oxazino[3′,2′:1,2]pyrido[3,4-13]indol-5-one]
- maximal fold induction (ABCA1): 1.5
- maximal fold induction (SR-BI): 1.22

Compound: O=c1c2cccnc2nc2n1CCc1c-2[nH]c2c(Cl)cccc12 [TR11, 12-chloro-8,13-dihydropyrido[2″,3″:4′,5′]pyrimido[1′,2′:1,2]pyrido[3,4-b]indol-5(7H)-one]
- maximal fold induction (ABCA1): 1.57
- maximal fold induction (SR-BI): 1.68

Compound: O=c1c2ccccc2nc2n1CCc1c-2[nH]c2ccccc12 [RUT, Rutaecarpine, reference compound]
- maximal fold induction (ABCA1): 2.09
- oral bioavailability [1]: very low
- maximal fold induction (SR-BI): 2.12

Compound: c1ccc2c(c1)CN1CCc3c([nH]c4ccccc34)C1N2 (stereo not shown) [TR2, 5,7,8,13,13b,14-hexahydroindolo[2′,3′:3,4]pyrido[2,1-b]quinazoline]
- maximal fold induction (ABCA1): 1.66
- maximal fold induction (SR-BI): 1.76

Compound: O=c1c2cccnc2nc2n1CCc1c-2[nH]c2ccc(Cl)cc12 [TR14, 10-chloro-8,13-dihydropyrido[2″,3″: 4′,5′]pyrimido[1′,2′:1,2]pyrido[3,4-b]indol-5(7H)-one]
- maximal fold induction (ABCA1): 1.48
- maximal fold induction (SR-BI): 1.57

Compound: O=c1c2ccccc2nc2n1CCc1c-2[nH]c2c(Cl)cccc12 [TR10, 12-chloro-8,13-dihydroindolo[2′,3′:3,4]pyrido[2,1-b]quinazolin-5(7H)-one]
- maximal fold induction (ABCA1): 1.43
- maximal fold induction (SR-BI): 1.72

Compound: Cc1cccc2c3c([nH]c12)-c1nc2ncccc2c(=O)n1CC3 [TR12, 12-methyl-8,13-dihydropyrido[2″,3″: 4′,5′]pyrimido[1′,2′:1,2]pyrido[3,4-b]indol-5(7H)-one]
- maximal fold induction (ABCA1): 1.51
- maximal fold induction (SR-BI): 1.44

Compound: O=c1c2ccccc2cc2n1CCc1c-2[nH]c2ccccc12 [TY3, 8,13-dihydroindolo[2′,3′:3,4]pyrido[1,2-b]isoquinolin-5(7H)-one]
- maximal fold induction (ABCA1): 1.97
- maximal fold induction (SR-BI): 1.41

Compound: O=c1c2cccnc2nc2n1CCc1c-2[nH]c2c(F)cccc12 [TR13, 12-fluoro-8,13-dihydropyrido[2″,3″:4′,5′]pyrimido[1′,2′:1,2]pyrido[3,4-b]indol-5(7H)-one]
- maximal fold induction (ABCA1): 1.54
- maximal fold induction (SR-BI): 1.72

Compound: O=C1c2ccccc2N(C(=O)C(F)(F)F)C2c3[nH]c4ccccc4c3CCN12 (stereo not shown) [TR6, 14-(2,2,2-trifluoroacetyl)-8,13,13b,14-tetrahydroindolo[2′,3′:3,4]pyrido[2,1-b]quinazolin-5(7H)-one]
- maximal fold induction (ABCA1): 1.96
- maximal fold induction (SR-BI): 1.56
- LXRα max (LXRα): 2.03
- LXRα agonist activity (LXRα): showed agonist activity
- LXRβ max (LXRβ): 1.69
- LXRβ agonist activity (LXRβ): showed agonist activity
